Test results reported in patent US11149062B2, “HDAC inhibitors and methods of treatment using the same” (UWM Research Foundation, Inc., priority 2015, dated 2021).
“Also recorded” adds a separate entry of the source. Where two headings read alike, the source gives them in different places.

Experiments:
Recombinant human HDAC4 = biological target: T1, Recombinant human HDAC4 (Homo sapiens, UniProt P56524); experiment: HDAC-Glo I/II assay, HDAC4; format: biochemical
T1 construct: purchased BPS Bioscience Inc
T1 sequence (P56524 whole entry): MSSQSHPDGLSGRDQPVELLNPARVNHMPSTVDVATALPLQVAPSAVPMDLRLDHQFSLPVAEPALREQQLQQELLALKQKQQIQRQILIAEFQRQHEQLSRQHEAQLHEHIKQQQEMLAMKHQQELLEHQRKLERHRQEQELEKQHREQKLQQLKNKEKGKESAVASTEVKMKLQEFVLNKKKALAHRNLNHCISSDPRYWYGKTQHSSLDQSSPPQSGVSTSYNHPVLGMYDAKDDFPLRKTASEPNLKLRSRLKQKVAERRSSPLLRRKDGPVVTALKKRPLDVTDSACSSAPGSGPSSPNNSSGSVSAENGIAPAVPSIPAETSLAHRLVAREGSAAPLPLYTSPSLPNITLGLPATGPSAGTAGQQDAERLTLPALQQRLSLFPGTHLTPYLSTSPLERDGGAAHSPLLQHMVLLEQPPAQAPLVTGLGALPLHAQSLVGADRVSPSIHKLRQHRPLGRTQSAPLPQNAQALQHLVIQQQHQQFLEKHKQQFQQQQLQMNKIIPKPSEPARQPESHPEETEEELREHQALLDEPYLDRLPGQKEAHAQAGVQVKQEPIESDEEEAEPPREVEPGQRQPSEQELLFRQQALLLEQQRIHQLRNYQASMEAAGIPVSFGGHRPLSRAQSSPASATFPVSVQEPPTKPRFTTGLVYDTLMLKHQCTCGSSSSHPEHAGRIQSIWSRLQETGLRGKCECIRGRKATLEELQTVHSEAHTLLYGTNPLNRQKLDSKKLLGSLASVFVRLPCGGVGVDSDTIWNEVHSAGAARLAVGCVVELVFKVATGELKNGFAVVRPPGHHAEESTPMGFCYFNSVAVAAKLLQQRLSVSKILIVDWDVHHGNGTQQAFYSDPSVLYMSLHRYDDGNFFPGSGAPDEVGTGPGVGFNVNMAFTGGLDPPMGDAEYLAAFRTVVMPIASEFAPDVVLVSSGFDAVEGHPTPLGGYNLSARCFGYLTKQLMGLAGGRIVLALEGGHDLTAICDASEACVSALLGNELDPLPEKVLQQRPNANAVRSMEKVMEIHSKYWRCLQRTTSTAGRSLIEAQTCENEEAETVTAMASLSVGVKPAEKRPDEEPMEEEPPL
Experimental: (§1) The purified compounds of all fragments and natural product derivatives were evaluated for inhibitory effects on three different classes of HDAC proteins (class I, IIa, and IIb). […] All activity was determined by using a fluorescence-based in vitro assay. Class I HDAC proteins that were evaluated were HDAC1, HDAC2, HDAC3, HDAC8, HDAC4, and HDAC6. Class IIa HDAC protein were HDAC4 and the Class IIb HDAC protein were HDAC6.
(§2) HDAC-Glo™ I/II Assay and Screening System (Promega) was used to determine the HDAC inhibitory activity. Recombinant human HDAC1, HDAC2, HDAC3, HDAC4, HDAC6 and HDAC8 were purchased from BPS Bioscience Inc. The inhibitory activities of the test compounds against recombinant HDAC were performed according to reagent suppliers' protocols.
(§3) All test compounds were firstly dissolved in DMSO to make 10 mM stock solution. A certain amount of stock solution was diluted to 1 mM by DMSO and then reduced by tris(2-carboxyethyl)phosphine hydrochloride (TCEP) in a molar ration of 1:1.5 for 20 min at ambient temperature prior to being assayed. After reduction, a series of fivefold dilutions of each reduced compound were prepared with HDAC-Glo buffer and 25 μL of each dilution was added into a well on a 96-well plate. HDAC enzymes were diluted to the desired concentrations with HDAC-Glo buffer and 25 μL of each diluted enzyme was dispensed into a well to mix with 25 μL of testing compound at room temperature for 30-60 seconds. After the reaction mixture had been incubated at room temperature for 1 hour, 50 μL of HDAC-Glo reagent was added to each reaction well and mixed up for 30-60 seconds. Finally, the plate was incubated at room temperature for an additional 30 minutes before the luminescence was measured on a Synergy HT plate reader (Bio-Tek). The luminescence intensity data were analyzed using GraphPad Prism 5 (GraphPad Software). In the absence of any test compound, the luminescence intensity (I100) in each data set was defined as 100% activity. In the absence of both of HDAC enzymes and test compound, the luminescence intensity (I0) in each data set was defined as 0% activity. The relative activity (%) in the presence of each compound was calculated according to the following equation: % activity=(I−I0)/(I100−I0), where I=the luminescence intensity if a compound is present in the reaction. Experiments were performed in triplicate and the calculated mean values were used for plotting.

[1] = 10 mg/mL cpd in 20% DMSO/saline
[2] = system: colon (HCT-116), cervical (HeLa), and renal (RFX393) tumor cell lines; experiment: MTT antiproliferative assay, all three tumor cell lines; format: cell-based; details: HCT-116, HeLa, RFX393; summary of Table 3; read-out: GI50 values against all three tumor cell lines
Experimental: (§4) Briefly, the tumor cells (1×10^4 cells/well) were seeded in 96-well microtiter plates and incubated for 24 h at 37° C. Following incubation, the media was replaced with fresh media containing the above compounds at concentrations ranging from 1 μM to 1 pM diluted in DMSO and incubated for an additional 48 h. Drugs were run in duplicate or triplicate and control cells received fresh media with DMSO concentration equivalent to the treatment groups. […] After aspirating the culture medium, 200 μL of DMSO was added to dissolve the precipitate and the resulting solution was measured for absorbance at 570 nm with a reference wavelength of 690 nm using a microplate reader (Infinite M200 Pro TECAN).

DU-145 (prostate cancer) = experiment: MTT antiproliferative assay, DU-145; format: cell-based; details: Homo sapiens, DU-145; MTT, 48 h; read-out: Antiproliferative Activity GI50, Prostate DU-145
Experimental: as §4

RFX393 (renal) = experiment: MTT antiproliferative assay, RFX393; format: cell-based; details: 48 h, read-out: Antiproliferative Activity GI50, Renal RFX393
Experimental: as §4

Recombinant human HDAC8 = biological target: T2, Recombinant human HDAC8 (Homo sapiens, UniProt Q9BY41); experiment: HDAC-Glo I/II assay, HDAC8; format: biochemical; details: Class I HDAC; compounds reduced by TCEP prior to assay
T2 construct: purchased BPS Bioscience Inc
T2 sequence (Q9BY41 1-377): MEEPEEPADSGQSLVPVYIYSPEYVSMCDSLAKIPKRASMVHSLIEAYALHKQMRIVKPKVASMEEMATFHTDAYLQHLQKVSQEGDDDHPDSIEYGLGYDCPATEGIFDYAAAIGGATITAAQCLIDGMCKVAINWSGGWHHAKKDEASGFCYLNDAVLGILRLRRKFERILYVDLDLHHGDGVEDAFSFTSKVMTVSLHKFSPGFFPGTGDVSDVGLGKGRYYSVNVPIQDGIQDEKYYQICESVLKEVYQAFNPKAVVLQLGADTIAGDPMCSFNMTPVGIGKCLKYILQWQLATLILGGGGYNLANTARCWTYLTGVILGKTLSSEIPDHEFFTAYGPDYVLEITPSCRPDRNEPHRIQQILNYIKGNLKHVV
Experimental: as §1, §2, §3

in vivo = details: BALB/c, mouse, in vivo, ip
Source text: (§5) BALB/c mice were purchased from The Jackson Laboratory (Bar Harbor, Me.) and used between 7 and 10 weeks of age. Mice were housed in a conventional animal vivarium and were given free access to food and water. All studies and procedures were approved by the Animal Care and Use Committee of the University of Wisconsin, Milwaukee.
(§6) Each animal was initially weighed using a digital scale and then intraperitoneally (IP) injected with the compounds (listed in Table 2). A single mouse was given a single IP dose of 200 mg/kg, body weight, a second mouse received a dose of 100 mg/kg and a third mouse received a single dose of 50 mg/kg. The mice were observed and weighed every other day for a period of 2 weeks. They were euthanized if they lost more than 20% of their body weight or if there were other signs of significant toxicity. […] This process was repeated until a tolerated dose was found, and the MTD value was determined.
(§7) To determine the MTD in vivo, the compounds listed above were injected intraperitoneally into BALB/c mice and morbidity and mortality were monitored over two weeks.

BALB/c mice = experiment: in vivo
Source text: as §5, §6, §7

HCT-116 (colon cancer) = experiment: MTT antiproliferative assay, HCT-116; format: cell-based; details: Homo sapiens, read-out: Antiproliferative Activity GI50, Colon HCT-116
Experimental: as §4

Recombinant human HDAC2 = biological target: T3, Recombinant human HDAC2 (Homo sapiens, UniProt Q92769); experiment: HDAC-Glo I/II assay, HDAC2; format: biochemical; details: Class I HDAC; compounds reduced by TCEP prior to assay
T3 construct: purchased BPS Bioscience Inc
T3 sequence (Q92769 whole entry): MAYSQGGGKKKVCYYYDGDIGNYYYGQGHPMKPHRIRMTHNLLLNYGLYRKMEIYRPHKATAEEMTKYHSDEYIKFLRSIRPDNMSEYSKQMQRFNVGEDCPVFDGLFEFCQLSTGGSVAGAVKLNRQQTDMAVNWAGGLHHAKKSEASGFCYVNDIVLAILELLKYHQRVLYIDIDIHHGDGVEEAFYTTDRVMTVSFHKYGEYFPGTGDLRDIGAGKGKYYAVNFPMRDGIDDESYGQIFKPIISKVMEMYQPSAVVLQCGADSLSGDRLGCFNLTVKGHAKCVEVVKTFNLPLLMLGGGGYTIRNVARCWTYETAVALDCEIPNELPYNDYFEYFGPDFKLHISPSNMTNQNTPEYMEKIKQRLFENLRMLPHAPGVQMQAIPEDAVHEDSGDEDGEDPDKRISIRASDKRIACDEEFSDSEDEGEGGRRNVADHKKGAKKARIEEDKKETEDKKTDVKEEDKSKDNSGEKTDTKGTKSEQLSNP
Experimental: as §1, §2, §3

HeLa (cervical cancer) = experiment: MTT antiproliferative assay, HeLa; format: cell-based; details: Homo sapiens, 48 h, read-out: Antiproliferative Activity GI50, Cervical HeLa
Experimental: as §4

Recombinant human HDAC1 = biological target: T4, Recombinant human HDAC1 (Homo sapiens, UniProt Q13547); experiment: HDAC-Glo I/II assay, HDAC1; format: biochemical; details: for Class I selectivity Ratio HDAC 1/HDAC8: ratio of IC50 values
T4 construct: purchased BPS Bioscience Inc
T4 sequence (Q13547 whole entry): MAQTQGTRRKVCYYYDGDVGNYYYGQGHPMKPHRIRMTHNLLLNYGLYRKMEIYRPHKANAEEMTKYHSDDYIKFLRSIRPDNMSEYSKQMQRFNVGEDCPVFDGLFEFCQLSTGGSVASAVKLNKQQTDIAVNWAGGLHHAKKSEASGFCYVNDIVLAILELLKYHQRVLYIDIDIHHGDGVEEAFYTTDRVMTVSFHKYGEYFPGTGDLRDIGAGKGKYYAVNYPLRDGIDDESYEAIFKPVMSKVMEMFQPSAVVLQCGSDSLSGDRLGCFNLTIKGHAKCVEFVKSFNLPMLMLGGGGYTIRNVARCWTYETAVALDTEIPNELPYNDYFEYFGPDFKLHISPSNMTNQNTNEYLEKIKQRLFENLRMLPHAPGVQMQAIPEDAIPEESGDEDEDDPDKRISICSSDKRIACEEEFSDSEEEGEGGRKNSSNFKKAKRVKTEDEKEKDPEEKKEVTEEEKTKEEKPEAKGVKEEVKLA
Experimental: as §1, §2, §3

COLO-205 (colon cancer) = experiment: MTT antiproliferative assay, COLO-205; format: cell-based; details: Homo sapiens, COLO 205; MTT, 48 h; read-out: Antiproliferative Activity GI50, Colon COLO-205
Experimental: as §4

[3] = system: MDA-MB-231 (breast cancer); experiment: MTT antiproliferative assay, MDA-MB-231; format: cell-based; details: Homo sapiens, MDA-MB-231; MTT, 48 h; read-out: Antiproliferative Activity GI50, Breast MDA-MB-231
Experimental: as §4

SKOV-3 (ovarian) = experiment: MTT antiproliferative assay, SKOV-3; format: cell-based; details: Homo sapiens, SK-OV-3; MTT, 48 h; read-out: Antiproliferative Activity GI50, Ovarian SKOV-3
Experimental: as §4

Recombinant human HDAC3 = biological target: T5, Recombinant human HDAC3 (Homo sapiens, UniProt O15379); experiment: HDAC-Glo I/II assay, HDAC3; format: biochemical; details: Class I HDAC; compounds reduced by TCEP prior to assay
T5 construct: purchased BPS Bioscience Inc
T5 sequence (O15379 whole entry): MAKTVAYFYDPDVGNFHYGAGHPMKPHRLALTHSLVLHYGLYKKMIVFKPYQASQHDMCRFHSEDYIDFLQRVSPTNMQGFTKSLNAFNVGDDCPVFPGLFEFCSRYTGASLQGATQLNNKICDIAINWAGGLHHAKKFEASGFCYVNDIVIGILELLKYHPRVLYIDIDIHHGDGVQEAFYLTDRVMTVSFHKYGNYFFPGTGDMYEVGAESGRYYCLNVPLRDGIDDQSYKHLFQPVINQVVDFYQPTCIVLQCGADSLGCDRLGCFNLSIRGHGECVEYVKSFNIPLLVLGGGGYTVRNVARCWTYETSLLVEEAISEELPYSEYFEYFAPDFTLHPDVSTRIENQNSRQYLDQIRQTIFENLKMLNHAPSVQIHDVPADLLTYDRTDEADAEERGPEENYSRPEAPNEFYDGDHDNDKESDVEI
T5 sequence (Q9Y618 395-489 partner limits assumed): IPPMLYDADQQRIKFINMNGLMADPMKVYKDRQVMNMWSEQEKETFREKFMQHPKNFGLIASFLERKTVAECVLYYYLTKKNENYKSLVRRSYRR
Experimental: as §1, §2, §3

class I HDACs = experiment: HDAC-Glo I/II assay, class I HDACs; format: biochemical, human; details: methyl esters compared with TDF4, TDF5, TDF6
Experimental: The purified compounds of all fragments and natural product derivatives were evaluated for inhibitory effects on three different classes of HDAC proteins (class I, IIa, and IIb). The natural products FK228, SAHA, TDP-A, and TDP-B were used as a positive control. All activity was determined by using a fluorescence-based in vitro assay. Class I HDAC proteins that were evaluated were HDAC1, HDAC2, HDAC3, HDAC8, HDAC4, and HDAC6. Class IIa HDAC protein were HDAC4 and the Class IIb HDAC protein were HDAC6.
as §2
as §3, with “After reduction, a series of fivefold dilutions of each reduced compound were prepared with HDAC-Glo buffer and 25 μL of each dilution was added into a well on a 96-well plate. HDAC enzymes were diluted to the desired concentrations with HDAC-Glo buffer and 25 μL of each diluted enzyme was dispensed into a well to mix with 25 μL of testing compound at room temperature for 30-60 seconds. After the reaction mixture had been incubated at room temperature for 1 hour, 50 μL of HDAC-Glo reagent was added to each reaction well and mixed up for 30-60 seconds.” left out

adult mice = details: cited from earlier work
histones H3 and H4 = details: 30 min time point; cited from earlier work
[4] = Class IIa HDAC, compounds reduced by TCEP prior to assay, read-out: IC50 of HDAC4
[5] = Class I HDAC, compounds reduced by TCEP prior to assay, read-out: IC50 of HDAC1

| SMILES | IC50 (Recombinant human HDAC4; [4]) | Solubility [1] | GI50 (RFX393 (renal); MTT) | IC50 (Recombinant human HDAC8) | MTD at 2 weeks (in vivo) | GI50 (HCT-116 (colon cancer); HCT-116, MTT, 48 h) | IC50 (Recombinant human HDAC2) | GI50 (HeLa (cervical cancer); MTT) | IC50 (Recombinant human HDAC1; [5]) | Class I selectivity Ratio HDAC 1/HDAC8 (Recombinant human HDAC1) | IC50 (Recombinant human HDAC3) | fold less active toward all class I HDACs (class I HDACs) | also measured |
| --- | --- | --- | --- | --- | --- | --- | --- | --- | --- | --- | --- | --- | --- |
| CCCC[C@H](NC(=O)CC(O)/C=C/CCS)C(=O)O (some centres unmarked) [TDF5] | > 1000 µM | Mostly soluble | 0.5 µM | 49.4 µM | > 200 mg/kg | 0.4 µM | 0.0459 µM | 0.4 µM | 0.0026 µM | 0.00002 | 0.839 µM |  | GI50 [2]: 0.5 µM; GI50 (DU-145 (prostate cancer)): 0.6 µM; MTD (toxicity in healthy BALB/c mice) (BALB/c mice; BALB/c, mouse, in vivo, ip, 2 weeks): >200 mg/kg; GI50 (COLO-205 (colon cancer)): 0.9 µM; GI50 [3]: 0.5 µM; GI50 (SKOV-3 (ovarian)): 0.7 µM |
| COC(=O)[C@@H](NC(=O)CC(O)/C=C/CCS)C(C)C (some centres unmarked) [TDF6m] | > 1000 µM | Soluble | 31.7 µM | 100 µM | > 200 mg/kg | 28.4 µM | 1.93 µM | 25.6 µM | 0.0302 µM |  | 0.1 µM | about 10 fold |  |
| C/C=C1\NC(=O)[C@H]2CSSCC/C=C/[C@H](CC(=O)N[C@H](C(C)C)C(=O)N2)OC(=O)[C@H](C(C)C)NC1=O [FK228, romidepsin, reference compound] |  |  |  |  |  |  |  |  |  |  |  |  | IC50 (Recombinant human HDAC4): 2.37 µM; GI50 (RFX393 (renal)): 0.0012 µM; MTD at 2 weeks (in vivo; MTD (toxicity in healthy BALB/c mice), single IP dose, observed 2 weeks): 3.25 mg/kg; MTD (toxicity in healthy BALB/c mice) (BALB/c mice; single IP dose, observed 2 weeks): 3.125 mg/kg; GI50 (HCT-116 (colon cancer); HCT-116, 48 h): 0.0012 µM; GI50 (HeLa (cervical cancer)): 0.0013 µM; IC50 (Recombinant human HDAC1): 0.0038 µM |
| CCCC[C@H](NC(=O)CC(O)/C=C/CCS)C(=O)OC (some centres unmarked) [TDF5m] | > 1000 µM | Soluble | 40.1 µM | 133 µM | > 200 mg/kg | 32.6 µM | 1.66 µM | 30.2 µM | 0.0265 µM | 0.00159 | 0.124 µM | about 10 fold |  |
| CCC(C)C(NC(=O)CC(O)/C=C/CCS)C(=O)OC (centres unmarked) [TDF4m] | > 1000 µM | Soluble | 32.1 µM | 117 µM | > 200 mg/kg | 31 µM | 2.12 µM | 20.1 µM | 0.0303 µM | 0.00061 | 0.0971 µM | about 10 fold |  |
| CC(/C=C/C(=O)NO)=C\[C@@H](C)C(=O)c1ccc(N(C)C)cc1 [TSA, trichostatin-A] |  |  |  |  |  |  |  |  |  |  |  |  | object recognition memory 48 h after training (adult mice; single treatment immediately after training, 16.5 mM, chance 15 s): completely intact object recognition memory; also recorded: spent more time than chance; object recognition memory, treatment delayed 3 h after training (adult mice; treatment delayed for 3 h after training): did not enhance memory; acetylation of histones H3 and H4 in dorsal hippocampus (histones H3 and H4): increases the acetylation of histones H3 and H4 |
